Data on two molecules can be found in US20160271139A1, “METHOD FOR NON-TOXIC TREATMENT FOR DRUG WITHDRAWAL” (DEMERX, INC., priority 2013, published 2016).

Data set [1] in a line: Plasma noribogaine glucuronide pharmacokinetics in healthy volunteers (Example 7). Format: in vivo. The note with it: human plasma; for AUC0-216 / AUC0-∞ / Cmax / Tmax / t1/2: mean.
The test system of data set [2] is Sprague-Dawley rats. Briefly: Fourteen day repeat dose toxicity in rats. Format: in vivo, rat. The method, then: This study was conducted to evaluate the toxicity profile of noribogaine-HCl following oral (gavage) administration to the rat for 14 days following Table 2 below:
Male and female Sprague-Dawley rats, 10/sex/group, were administered 0, 25, 50 or 100 mg/kg noribogaine HCl daily by single oral gavage for 14 days. An additional 5 rats/sex/group in the 0 (control) and 100 mg/kg groups were retained for a 28 day recovery period during which no drug was administered. Six rats/sex/group (3 rats/sex controls) were similarly dosed and sampled on study days 1 and 14 for analysis of noribogaine-HCl concentrations in the blood.

The nature of data set [3]: Human pharmacokinetic study, single oral dose, serum levels (Example 6). Format: in vivo. The following applies: fasting healthy volunteers, single oral tablet 3, 10, 30 or 60 mg. The method, then:
In double blind studies, fasting healthy volunteers (6 per cohort) were treated once orally with a tablet of noribogaine HCl. In escalating cohorts, the volunteers received 3 mg, 10 mg, 30 mg or 60 mg noribogaine.

Data set [4] relates to Sprague-Dawley rat. Nature of the data set: Single dose toxicity in rats. The following applies: male rats. Format: in vivo. The method, then: The objective of this study was to determine the toxicity and toxicokinetic profile of noribogaine HCl following a single oral (gavage) administration in the Sprague-Dawley rat. A single dose of 100, 300 and 800 mg/kg (achieved with doses of 400 mg/kg 3 h+/−30 min apart because of the limitations of maximum dose formulation concentration). Five male rats/group were used. […] Hypoactivity, vocalization, chewing movements, changes in respiration/posture, salivation, stimuli sensitivity, tremors, twitches and penile erection occurred prior to death. […] The NOAEL was determined to be 100 mg/kg.

Data set [5] has as its system dogs. Briefly: Fourteen day repeat dose toxicity in dogs. Format: in vivo, dog. The method, then:
The objective of this study was to determine the toxicity profile of noribogaine HCl given following oral (gavage) administration to dogs for 14 days according to the following Table 3 below:
Noribogaine HCl was administered to groups of 4 male and 4 female dogs by single oral gavage daily for 14 days at doses of 0, 0.5, 1.0 and 5.0 mg/kg/day. An additional group of 4 male and 4 female dogs received either the vehicle control or 5.0 mg/kg/day for 14 days and were held for an additional 28 days after cessation of dosing to assess recovery from any potential drug-induced changes. The study was conducted under GLP guidelines and included comprehensive examinations of clinical signs, body weight, clinical pathology parameters, ophthalmologic examinations. ECG recordings and analyses of plasma for bioanalytical measurement of drug levels at appropriate intervals during the study. At the termination of the dosing phase and at the termination of the recovery phase, all dogs were subjected to a complete post-mortem examination including gross examination of major organs and histologic examination of an extensive list of tissues. Additional sections of brain were obtained from cerebrum, cerebellus, brain stem and spinal cord and examined histologically to evaluate potential effects on brain histopathology. In addition, these sections were examined with immunohistochemical stains for GFAP for evidence of gliosis and Calbindin for a more comprehensive examination of cerebellar Purkinje cells.

Where [6] appears, read: after single oral 30 mg noribogaine (n = 6).
[7] abbreviates: after single oral 60 mg noribogaine (n = 6).

As for `CC[C@H]1C[C@@H]2C[C@H]3c4[nH]c5ccc(OC6OC(C(=O)O)C(O)C(O)C6O)cc5c4CCN(C2)[C@@H]13` (some centres unmarked) [Noribogaine glucuronide, noribogaine glucuronide], in data set [1] (30 mg and 60 mg dose groups), the Mean half-life fell in the range of 21 to 23 h and the “Time of peak concentrations after noribogaine dosing” value fell in the range of 3 to 4 h. In addition, the “Time by which detected in all subjects” value in data set [1] (30 mg and 60 mg noribogaine dose groups) was not above 0.75 h. In data set [1] (setting [6]), the AUC0-216 was 25.7 ng·h/mL, the “AUC0-∞” value was determined as 25.8 ng·h/mL, the Cmax worked out at 1.8 ng/mL and the Tmax came to 3.0 h. The t1/2 in data set [1] (setting [6]) turned out to be 20.6 h. For the same molecule, in data set [1] (setting [7]), the AUC0-216 is 65.0 ng·h/mL, the “AUC0-∞” value was determined as 67.1 ng·h/mL, the Cmax stood at 4.1 ng/mL and the Tmax is 3.8 h. Also, the t1/2 in data set [1] (setting [7]) amounted to 23.1 h. The “Proportion of noribogaine glucuronide Cmax and AUC relative to noribogaine” value in data set [1] (both dose groups (30 mg, 60 mg)) was 3-4%.
The NOAEL is the highest dose or exposure tested at which no adverse effect was seen. Regarding `CC[C@@H]1C[C@H]2CC3c4[nH]c5ccc(O)cc5c4CCN(C2)C31.Cl` [noribogaine HCl], the “Effects on mortality, clinical signs, ophthalmoscopy, hematology, coagulation parameters, clinical chemistry, urinalysis, gross necropsy or histopathology” value in data set [2] (rats, 25, 50 or 100 mg/kg daily oral gavage for 14 days) is listed as “no test article-related effects”. The “Brain sections stained for GFAP or Calbindin” value in data set [2] (rats, 14 days oral gavage) is on record as “No treatment-related differences in the brain”. The NOAEL in data set [2] (rats, 14 days oral gavage, highest dose tested) worked out at 100 mg/kg; in data set [4] (single oral gavage), 100 mg/kg; in data set [5] (dogs, 14 days oral gavage, based on lacrimal gland changes at 5 mg/kg/day), 1 mg/kg/day. Moreover, the Body weight change in data set [2] (rats, females, high dose 100 mg/kg, 14 days) was −2.6%; in data set [2] (rats, males, high dose 100 mg/kg, 14 days), −5.5%. Besides, the Food consumption change in data set [2] (rats, males and females, high dose 100 mg/kg, 14 days) is −4.7%. The Liver weight result in data set [2] (rats, mid- and high dose groups (50, 100 mg/kg), 14 days, not correlated with histopathologic changes, considered incidental) is “Minor increases in liver weight”. Further, the Adverse effects result in data set [3] was “no clinically relevant adverse effects were observed”. For the same molecule, the “Linearity of pharmacokinetic parameters” value in data set [3] was “All parameters were linear”. In data set [4] (single oral gavage 100 mg/kg), the Treatment related signs entry is reported as “did not show any treatment related signs”. In addition, the “Rats with hypoactivity, vocalization, salivation, stimuli sensitivity, loss of limb function and lying on the cage floor persisting until Day 2” value in data set [4] (single oral gavage 300 mg/kg) is 3/5. For the same molecule, the Mortality entry in data set [4] (single oral gavage 800 mg/kg (2 x 400 mg/kg 3 h apart), approximately 2-3 h after second dose) is on record as “Mortality occurred in all male rats”. Besides, in data set [5] (dogs, 5 mg/kg/day 14 days, then 28 days off drug), the “Lacrimal gland change in recovery group” value was “clear evidence of regeneration”. Besides, in data set [5] (dogs, 5 mg/kg/day, 14 days), the “Lacrimal gland changes (only target tissue)” value is “slight to moderate atrophy and degeneration of the acinar cells”. Further, in data set [5] (dogs, 0.5, 1.0 and 5.0 mg/kg/day oral gavage 14 days, dosing or recovery phase), the “Adverse effect in clinical observations, body weights, clinical pathological parameters, ophthalmologic examinations, ECG recordings, or gross lesions at necropsy” value is “No evidence of adverse effect”. Also, the “Drug-induced effect in any other tissue including brain (histopathology, immunohistochemistry)” value in data set [5] (dogs, 14 days oral gavage) is reported as “No evidence of drug-induced effect”.
